Results on 10 compounds are retold here after ChEMBL document CHEMBL3585261, “Isolation and Pharmacological Evaluation of Minor Cannabinoids from High-Potency Cannabis sativa” (J Nat Prod, 2015).

One experiment concerns the target Cannabinoid receptor 1 (Homo sapiens, UniProt P21554). Description: Displacement of [3H]CP55940 from full length human recombinant CB1 receptor expressed in HEK293 cells after 90 mins by scintillation counting analysis. The format is cell-based. Background: In a radioligand displacement assay an active substance lowers the binding of a labelled ligand.
Another experiment has as its target Cannabinoid receptor 2 (Homo sapiens, UniProt P34972). Description: Displacement of [3H]CP55940 from full length human recombinant CB2 receptor expressed in HEK293 cells after 90 mins by scintillation counting analysis. In kind it is cell-based.
Experiment [1] deals with Mus musculus. Description: Neurobehavioral effect on Swiss Webster mouse assessed as decrease in rectal temperature at 20 mg/kg, ip (reference value: 0.58 +/- 0.26 degC) by mouse tetrad assay. In kind it is functional.
The test system of experiment [2] is Mus musculus. Description: Neurobehavioral effect on Swiss Webster mouse assessed as tail-flick latency time at 20 mg/kg, ip (reference value: 0.84 +/- 3.58 %) by mouse tetrad assay. The format is functional.
For experiment [3], the system named is Mus musculus. Description: Neurobehavioral effect on Swiss Webster mouse assessed as hot plate latency time at 20 mg/kg, ip (reference value: 8.32 +/- 2.20 %) by mouse tetrad assay. The format is functional.
Experiment [4] relates to Mus musculus. As to the kind of experiment: Neurobehavioral effect on Swiss Webster mouse assessed as catalepsy latency time at 20 mg/kg, ip (reference value: 2.1 +/- 0.60 secs) by mouse tetrad assay. In kind it is functional.
In experiment [5] the test system is Mus musculus. Description: Neurobehavioral effect on Swiss Webster mouse assessed as locomotor activity measured as total number of interruptions at 20 mg/kg, ip monitored for 30 mins (reference value: 2091 +/- 209.3) by mouse tetrad assay. In kind it is functional.
Experiment [6] has as its system Mus musculus. Description: Neurobehavioral effect on Swiss Webster mouse assessed as decrease in rectal temperature at 5 mg/kg, ip (reference value: 0.58 +/- 0.26 degC) by mouse tetrad assay. In kind it is functional.
Experiment [7] concerns Mus musculus. Description: Neurobehavioral effect on Swiss Webster mouse assessed as locomotor activity measured as total number of interruptions at 5 mg/kg, ip monitored for 30 mins (reference value: 2091 +/- 209.3) by mouse tetrad assay. In kind it is functional.
Experiment [8] concerns Mus musculus. As to the kind of experiment: Neurobehavioral effect on Swiss Webster mouse assessed as hot plate latency time at 5 mg/kg, ip (reference value: 8.32 +/- 2.20 %) by mouse tetrad assay. The format is functional.
In experiment [9] the test system is Mus musculus. As to the kind of experiment: Neurobehavioral effect on Swiss Webster mouse assessed as catalepsy latency time at 10 mg/kg, ip (reference value: 2.1 +/- 0.60 secs) by mouse tetrad assay. In kind it is functional.
For experiment [10], the system named is Mus musculus. As to the kind of experiment: Neurobehavioral effect on Swiss Webster mouse assessed as tail-flick latency time at 5 mg/kg, ip (reference value: 0.84 +/- 3.58 %) by mouse tetrad assay. The format is functional.
Experiment [11] concerns Mus musculus. As to the kind of experiment: Neurobehavioral effect on Swiss Webster mouse assessed as decrease in rectal temperature at 10 mg/kg, ip (reference value: 0.58 +/- 0.26 degC) by mouse tetrad assay. The format is functional.
Experiment [12] relates to Mus musculus. As to the kind of experiment: Neurobehavioral effect on Swiss Webster mouse assessed as locomotor activity measured as total number of interruptions at 10 mg/kg, ip monitored for 30 mins (reference value: 2091 +/- 209.3) by mouse tetrad assay. The format is functional.
For experiment [13], the system named is Mus musculus. Description: Neurobehavioral effect on Swiss Webster mouse assessed as hot plate latency time at 10 mg/kg, ip (reference value: 8.32 +/- 2.20 %) by mouse tetrad assay. In kind it is functional.
The subject of experiment [14] is Mus musculus. As to the kind of experiment: Neurobehavioral effect on Swiss Webster mouse assessed as tail-flick latency time at 10 mg/kg, ip (reference value: 0.84 +/- 3.58 %) by mouse tetrad assay. The format is functional. On the technique in general: Hot-plate and tail-flick tests time the reaction to a heat stimulus.
The test system of experiment [15] is Mus musculus. Description: Neurobehavioral effect on Swiss Webster mouse assessed as catalepsy latency time at 5 mg/kg, ip (reference value: 2.1 +/- 0.60 secs) by mouse tetrad assay. In kind it is functional.
Experiment [16] relates to Mus musculus. Description: Neurobehavioral effect on Swiss Webster mouse assessed as catalepsy latency time at 40 mg/kg, ip (reference value: 2.1 +/- 0.60 secs) by mouse tetrad assay. In kind it is functional.
Experiment [17] relates to Mus musculus. Description: Neurobehavioral effect on Swiss Webster mouse assessed as hot plate latency time at 40 mg/kg, ip (reference value: 8.32 +/- 2.20 %) by mouse tetrad assay. In kind it is functional.
For experiment [18], the system named is Mus musculus. Description: Neurobehavioral effect on Swiss Webster mouse assessed as decrease in rectal temperature at 40 mg/kg, ip (reference value: 0.58 +/- 0.26 degC) by mouse tetrad assay. In kind it is functional.
In experiment [19] the test system is Mus musculus. Description: Neurobehavioral effect on Swiss Webster mouse assessed as tail-flick latency time at 40 mg/kg, ip (reference value: 0.84 +/- 3.58 %) by mouse tetrad assay. The format is functional.
Experiment [20] has as its system Mus musculus. Description: Neurobehavioral effect on Swiss Webster mouse assessed as locomotor activity measured as total number of interruptions at 40 mg/kg, ip monitored for 30 mins (reference value: 2091 +/- 209.3) by mouse tetrad assay. In kind it is functional.

Sequence of Cannabinoid receptor 1 (P21554 whole entry): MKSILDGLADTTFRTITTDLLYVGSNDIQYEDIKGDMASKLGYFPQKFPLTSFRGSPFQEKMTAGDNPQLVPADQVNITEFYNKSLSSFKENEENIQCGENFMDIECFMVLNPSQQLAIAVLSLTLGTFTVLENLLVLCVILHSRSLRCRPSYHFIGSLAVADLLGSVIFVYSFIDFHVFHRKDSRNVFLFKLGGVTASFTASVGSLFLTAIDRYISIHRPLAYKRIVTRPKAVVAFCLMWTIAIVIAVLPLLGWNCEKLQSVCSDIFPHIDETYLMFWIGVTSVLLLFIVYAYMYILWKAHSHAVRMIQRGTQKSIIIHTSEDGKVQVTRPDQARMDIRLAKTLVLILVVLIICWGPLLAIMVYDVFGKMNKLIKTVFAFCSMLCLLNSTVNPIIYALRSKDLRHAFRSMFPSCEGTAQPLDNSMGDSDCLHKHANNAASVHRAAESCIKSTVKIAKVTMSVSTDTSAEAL
Sequence of Cannabinoid receptor 2 (P34972 whole entry): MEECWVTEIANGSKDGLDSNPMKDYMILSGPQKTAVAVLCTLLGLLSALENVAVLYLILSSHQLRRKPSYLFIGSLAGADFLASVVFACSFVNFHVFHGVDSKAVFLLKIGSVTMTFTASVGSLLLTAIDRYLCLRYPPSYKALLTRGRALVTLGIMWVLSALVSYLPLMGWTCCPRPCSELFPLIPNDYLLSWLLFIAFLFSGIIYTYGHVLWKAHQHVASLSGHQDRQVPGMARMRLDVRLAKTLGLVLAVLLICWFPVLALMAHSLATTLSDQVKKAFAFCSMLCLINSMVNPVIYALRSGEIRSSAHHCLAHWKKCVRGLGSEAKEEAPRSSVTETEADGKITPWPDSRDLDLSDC

As usually defined, the Ki is a measure of affinity in units of concentration, obtained from inhibition or displacement. As for `C=C1CC[C@@H]2[C@H](c3c(O)cc(CCCCC)cc3OC2(C)C)[C@H]1O`, the Ki at Cannabinoid receptor 1 worked out at 117 nM; on Cannabinoid receptor 2, 129 nM.
For `CCCCCc1cc(O)c2c(c1)OC(C)(C)[C@@H]1CC[C@](C)(O)[C@@H](O)[C@@H]21`, the Ki on Cannabinoid receptor 1 came to 5670 nM; on Cannabinoid receptor 2, 2140 nM. Further, the T with Mus musculus [1] stood at 0.45 °C. Moreover, the MPE is given as 2.98% with Mus musculus [2] and 2.4% in the experiment on Mus musculus [3]. Moreover, in the experiment on Mus musculus [4], the Time is 2.25 s. The Activity in the experiment on Mus musculus [5] came to 1892.
As to `CCCCCc1cc(O)c2c(c1)OC(C)(C)[C@@H]1CC=C(C)[C@H](O)[C@@H]21`, the T came out at 2.46 °C in the experiment on Mus musculus [6], 3.21 °C with Mus musculus [11] and 5.38 °C in the experiment with Mus musculus [1]. Also, the results for the Ki at Cannabinoid receptor 1 and at Cannabinoid receptor 2 were 31 nM and 30 nM, respectively. Further, the Activity in the experiment on Mus musculus [7] turned out to be 318.1; in the experiment with Mus musculus [12], 288.3; in the experiment on Mus musculus [5] it was 301.9. For the same compound, the MPE with Mus musculus [8] worked out at 21.04%; with Mus musculus [10], 37.4%; with Mus musculus [2], 90.16%; in the experiment on Mus musculus [3] it was 47.63%; in the experiment with Mus musculus [13], 56.33%; in the experiment with Mus musculus [14], 31.46%. In addition, the values for the Time in the experiment on Mus musculus [9], in the experiment on Mus musculus [4] and with Mus musculus [15] were 23.9 s, 51.1 s and 22 s, respectively.
For the compound `CCCCCc1cc(O)c2c(c1)OC(C)(C)[C@@H]1CC[C@@]3(C)O[C@H]3[C@@H]21`, the T in the experiment with Mus musculus [6] was determined as 3.75 °C; in the experiment with Mus musculus [11], 3.11 °C; in the experiment with Mus musculus [1], 4.58 °C. The Ki on Cannabinoid receptor 1 came to 224 nM; at Cannabinoid receptor 2, 335 nM. For the same compound, the values for the Activity with Mus musculus [7], in the experiment with Mus musculus [12] and with Mus musculus [5] were 213.4, 291.2 and 380.3, respectively. For the same compound, the MPE with Mus musculus [8] is on record as 36.98%; in the experiment on Mus musculus [10], 16.25%; in the experiment with Mus musculus [2], 50.37%; in the experiment with Mus musculus [3] it was 49.39%; in the experiment on Mus musculus [13], 35.89%; in the experiment with Mus musculus [14] it was 82.71%. In addition, the values for the Time in the experiment with Mus musculus [9], in the experiment on Mus musculus [4] and in the experiment with Mus musculus [15] were 8.8 s, 27.5 s and 23.8 s, respectively.
Take `CCCCCc1cc(O)c2c(c1)OC(C)(C)[C@@H]1C[C@@H](O)C(C)=C[C@@H]21`: the Time with Mus musculus [16] was found to be 11.43 s; with Mus musculus [9], 1.143 s; with Mus musculus [4] it was 1.43 s. The Ki on Cannabinoid receptor 1 worked out at 65 nM; on Cannabinoid receptor 2, 88 nM. Also, the MPE in the experiment with Mus musculus [17] was 11.79%; with Mus musculus [2], 1.62%; in the experiment with Mus musculus [3], 2.04%; in the experiment with Mus musculus [13], 11.83%; in the experiment on Mus musculus [14] it was 0.13%; with Mus musculus [19], 12.69%. The T came out at 0.91 °C with Mus musculus [18], 0.49 °C in the experiment with Mus musculus [11] and 0.5 °C in the experiment on Mus musculus [1]. In addition, the Activity in the experiment with Mus musculus [12] is reported as 1617; with Mus musculus [20] it was 777.4; in the experiment with Mus musculus [5], 1148.
For `CCCCCc1cc(O)c2c(c1)OC(C)(C)[C@@H]1CC=C(C)[C@@H](O)[C@@H]21`, the Time was determined as 13.7 s in the experiment on Mus musculus [16] and 1.4 s in the experiment on Mus musculus [9]. Moreover, the Ki at Cannabinoid receptor 1 was 830 nM; at Cannabinoid receptor 2 it was 3270 nM. Further, the MPE in the experiment on Mus musculus [17] came out at 55.65%; in the experiment on Mus musculus [13], 6.819%; in the experiment on Mus musculus [14], 2.2%; in the experiment with Mus musculus [19], 69.95%. Moreover, the T in the experiment on Mus musculus [18] amounted to 5.32 °C; in the experiment on Mus musculus [11], 0.47 °C. Also, the Activity with Mus musculus [12] turned out to be 3045; in the experiment on Mus musculus [20] it was 2537.
With `CCCCCc1cc2c(c(O)c1C(=O)O)[C@@H]1C=C(COC(C)=O)CC[C@H]1C(C)(C)O2`, the Ki was 47 nM at Cannabinoid receptor 1 and 912 nM on Cannabinoid receptor 2.
Consider `CCCCCc1cc(O)c2c(c1)OC(C)(C)[C@@H]1C[C@H](O)C(C)=C[C@@H]21`, for which the Ki on Cannabinoid receptor 1 is 1910 nM; at Cannabinoid receptor 2, 3220 nM. For the same compound, the T in the experiment on Mus musculus [1] was found to be 0.58 °C. For the same compound, the results for the MPE with Mus musculus [2] and in the experiment on Mus musculus [3] were 5.01% and 4.95%, respectively. The Time with Mus musculus [4] was 1.5 s. Moreover, the Activity in the experiment with Mus musculus [5] was determined as 908.9.
As to `CCCCCc1cc(O)c2c(c1)OC(C)(C)[C@@H]1CC=C(C)C[C@@H]21` [DELTA-8-TETRAHYDROCANNABINOL], the T in the experiment on Mus musculus [6] was determined as 0.12 °C; in the experiment with Mus musculus [1] it was 1.96 °C. The Activity is listed as 1480 in the experiment on Mus musculus [7] and 377.4 with Mus musculus [5]. Also, the MPE with Mus musculus [8] is on record as 12.82%; with Mus musculus [10], 8.01%; in the experiment with Mus musculus [2], 5.97%; with Mus musculus [3], 16.98%. In addition, the figures for the Time with Mus musculus [4] and with Mus musculus [15] were 5.3 s and 1.6 s, respectively.
On to `CCCCCc1cc(O)c2c(c1)OC(C)(C)[C@@H]1CCC(C)=C[C@@H]21` [DRONABINOL], for which the figures for the Time in the experiment on Mus musculus [16], with Mus musculus [9] and in the experiment on Mus musculus [4] were 37.7 s, 14.4 s and 47.9 s, respectively. Also, the MPE with Mus musculus [17] worked out at 38.18%; with Mus musculus [2], 42.21%; in the experiment with Mus musculus [3] it was 46.85%; in the experiment on Mus musculus [13], 29.04%; in the experiment on Mus musculus [14], 6.52%; in the experiment with Mus musculus [19], 51.96%. Further, the T in the experiment with Mus musculus [18] worked out at 4.8 °C; in the experiment with Mus musculus [11], 2.05 °C; with Mus musculus [1], 4.25 °C. In addition, the Activity is on record as 190.9 with Mus musculus [12], 194 in the experiment on Mus musculus [20] and 276.2 in the experiment on Mus musculus [5].
